Assay results from US20220079912A1, “ANTICANCER FORMULATION” (University of Mississippi, priority 2018, published 2022).

Experiments:
[1] = tested on: BNC16 patient derived Glioblastoma cells; assay: Colony formation assay, combination with DHEA; format: cell-based, human; settings: BNC16, 24 h, FIG. 20
[2] = tested on: cancer stem cells (CSCs) grown from BNC3 patient derived Glioblastoma cells; assay: Cell viability by Trypan Blue exclusion cell count, combination with DHEA; format: cell-based, human; settings: 24 h, FIGS. 21A-B
BT-549 = assay: Combination cytotoxicity with phenformin; format: cell-based; settings: BT-549, data not shown
T98G glioblastoma cells [3] = assay: Cell proliferation / cell survival; format: cell-based, human; settings: varying concentrations, 48 hours, dose dependent, FIG. 1
Method: B16 mouse melanoma cells, T98G glioblastoma cells, and MDA-MB-231 human breast cancer cells were treated with varying concentrations of GH for 48 hours with cell survival measured.

U87MG Glioma cells = assay: Colony formation assay, combination with DHEA; format: cell-based, human; settings: 24 h, FIG. 20
TXNIP protein levels = assay: Western blot of TXNIP protein, T98G cell line; format: cell-based, human; settings: FIG. 15, FIG. 17
Excerpt: AMPK activation has been previously shown to phosphorylate and cause the degradation of TXNIP during energy stress (13).

B16 cells [4] = assay: Glucose transport (2-NBDG accumulation); format: cell-based, mouse; settings: B16, treated for one hour followed by 2-NBDG for one hour
[5] = tested on: MDA-MB-231 human breast cancer cells; assay: Lactic acid accumulation in cell culture medium; format: cell-based; settings: MDA-MB-231, FIG. 2C
Excerpt: (§1) During cell survival experiments the acidification of the cell culture medium was inhibited when GH was present. Acidification of the cell culture medium occurs because of the enhanced use of glycolysis by transformed cells (and resulting increase in lactic acid production). This led us to investigate whether GH reduced lactic acid levels in the cell culture medium.

B16 mouse melanoma cells = assay: Lactic acid accumulation in cell culture medium; format: cell-based; settings: B16, FIG. 2A
Excerpt: as §1

[6] = tested on: cancer stem cells (CSCs) grown from BNC6 patient derived Glioblastoma cells; assay: Cell viability by Trypan Blue exclusion cell count, combination with DHEA; format: cell-based, human; settings: 24 h, FIGS. 22A-B
PA-1 Ovarian cancer = assay: Colony formation assay, combination with DHEA; format: cell-based, human; settings: PA-1, 24 h, FIG. 20
[7] = tested on: BNC6 patient derived Glioblastoma cells; assay: Colony formation assay, combination with DHEA; format: cell-based, human; settings: BNC6, 24 h, FIG. 20
SK-OV3 = assay: Combination cytotoxicity with phenformin; format: cell-based; settings: SK-OV3, data not shown
[8] = tested on: BNC41 patient derived Glioblastoma cells; assay: Colony formation assay, combination with DHEA; format: cell-based, human; settings: BNC41, 24 h, FIG. 20
KHOS = assay: Combination cytotoxicity with phenformin; format: cell-based; settings: data not shown
SK-MEL = assay: Combination cytotoxicity with phenformin; format: cell-based; settings: data not shown
[9] = tested on: BNC3 patient derived Glioblastoma cells; assay: Colony formation assay, combination with DHEA; format: cell-based, human; settings: BNC3, 24 h, FIG. 20
[10] = tested on: cancer stem cell (CSC) populations from two patients with Temodar (TMZ)-resistant glioblastoma; assay: Combination cytotoxicity with Paw Paw acetogenin extract; format: cell-based, human; settings: GH 4 μM, FIG. 11
Excerpt: (§2) Example 3: Paw Paw Extract.

[11] = tested on: bulk tumor cells from two patients with Temodar (TMZ)-resistant glioblastoma; assay: as above; format: cell-based, human; settings: GH 4 μM, FIG. 11
Excerpt: as §2

B16 cells [12] = assay: Lactic acid export (intracellular lactic acid levels); format: cell-based, mouse; settings: FIG. 4
Method: To prevent the buildup of lactic acid within the cell a family of monocarboxylate transporters (MCT) functions to transport lactic acid out of the cell (10). To determine if GH inhibits lactic acid export from the cell, and in this manner inhibits the accumulation of lactic acid in the cell culture medium, intracellular lactic acid levels were measured. If GH inhibited lactic acid export, treatment of cells with GH would result in the increase in intracellular lactic acid levels. As a positive control the MCT1 inhibitor AZD3965 was used.

[13] = tested on: Mia-PACA pancreatic cancer; assay: Colony formation assay, combination with DHEA; format: cell-based, human; settings: 24 h, FIG. 20
KB (HeLa) = assay: Combination cytotoxicity with phenformin; format: cell-based; settings: data not shown
[14] = tested on: MDA-MB-231 breast cancer cells; assay: Colony formation assay, combination with DHEA; format: cell-based, human; settings: MDA-MB-231, 24 h, FIG. 20
T98G cells = assay: Glucose transport (2-NBDG accumulation); format: cell-based, human; settings: treated for one hour followed by 2-NBDG for one hour
SKOV-3 ovarian cancer = assay: Colony formation assay, combination with DHEA; format: cell-based, human; settings: SKOV-3, 24 h, FIG. 20
T98G glioblastoma cells [15] = assay: Colony formation assay, combination with DHEA; format: cell-based, human; settings: 12 h (other inhibitors 24 h), FIG. 19
Method: GH, a glycolysis inhibitor, is cytotoxic to human tumor cells when used in combination with a Glucose-6-Phosphate Dehydrogenase inhibitor, dehydroepiandrosterone, (DHEA). To compensate for high ROS levels, cancer cells increase glycolysis and pentose phosphate cycle to provide reducing equivalents (NADH and NADPH) to neutralize hydro peroxides (15). […] The other glycolysis inhibitors tested in combination with DHEA were ineffective even at 24 h.

MDA-MB-231 cells = assay: Glucose transport (2-NBDG accumulation); format: cell-based, human; settings: MDA-MB-231, treated for one hour followed by 2-NBDG for one hour
Excerpt: Phloretin, a known glucose transport inhibitor, was used as a positive control. Accumulation of 2-NDGB was inhibited by phloretin by 54% in T98G cells, by 31% in B16 cells and by 74% in MDA-MB-231 cells. The first panel for each cell line represents unstained cells, the second stained with 2-NBDG for one hour, the third treated with GH for one hour followed by 2-NBDG for one hour and the fourth treated with phloretin for one hour followed by 2-NBDG for one hour.

SMILES: Oc1ccc(/C=C/c2c3c(cc4c2[C@H](c2cc(O)cc(O)c2)[C@@H](c2ccc(O)cc2)O4)O[C@H](c2ccc(O)cc2)[C@H]3c2cc(O)cc(O)c2)cc1 (relative stereo) [GH, trans-Gnetin H]
- cytotoxicity in combination with DHEA (cell staining) [1]: cytotoxic
- cytotoxicity in combination with DHEA (percentage of cell viability) [2]: cytotoxic
- synergistic cytotoxicity with phenformin (BT-549): synergistically cytotoxic
- inhibition of cell proliferation (cell survival) (T98G glioblastoma cells [3]): inhibits the proliferation
- cytotoxicity in combination with DHEA (cell staining) (U87MG Glioma cells): cytotoxic
- TXNIP protein levels, in combination with Ph (TXNIP protein levels): reduction of TXNIP protein levels
- TXNIP protein levels, agent alone (TXNIP protein levels; GH 8 μM 6 hrs or 3 hrs, 2-DG 25 mM, OXA 25 mM, BPX 25 μM, DCA 25 mM, 6 hr): dramatic reduction in the levels of TXNIP protein
- effect on accumulation of 2-NBDG (glucose transport) (B16 cells [4]): did not influence the accumulation
- lactic acid production [5]: inhibits lactic acid production
- lactic acid production (B16 mouse melanoma cells): inhibits lactic acid production
- cytotoxicity in combination with DHEA (percentage of cell viability) [6]: cytotoxic
- cytotoxicity in combination with DHEA (cell staining) (PA-1 Ovarian cancer): cytotoxic
- cytotoxicity in combination with DHEA (cell staining) [7]: cytotoxic
- synergistic cytotoxicity with phenformin (SK-OV3): synergistically cytotoxic
- cytotoxicity in combination with DHEA (cell staining) [8]: cytotoxic
- synergistic cytotoxicity with phenformin (KHOS): synergistically cytotoxic
- synergistic cytotoxicity with phenformin (SK-MEL): synergistically cytotoxic
- cytotoxicity in combination with DHEA (cell staining) [9]: cytotoxic
- synergistic cytotoxicity in combination with acetogenin extract from Paw Paw (PP-2 μg/ml) [10]: synergistically cytotoxic
- synergistic cytotoxicity in combination with acetogenin extract from Paw Paw (PP-2 μg/ml) [11]: synergistically cytotoxic
- effect on intracellular lactic acid (B16 cells [12]): did not increase intracellular lactic acid
- cytotoxicity in combination with DHEA (cell staining) [13]: cytotoxic
- synergistic cytotoxicity with phenformin (KB (HeLa)): synergistically cytotoxic
- cytotoxicity in combination with DHEA (cell staining) [14]: cytotoxic
- effect on accumulation of 2-NBDG (glucose transport) (T98G cells): did not influence the accumulation
- cytotoxicity in combination with DHEA (cell staining) (SKOV-3 ovarian cancer): cytotoxic
- cytotoxicity in combination with DHEA (cell staining) (T98G glioblastoma cells [15]): rapidly cytotoxic
- effect on accumulation of 2-NBDG (glucose transport) (MDA-MB-231 cells): did not influence the accumulation
